The values that follow come from patent publication US4564684A, “3-Amino-1-phenyl-2-pyrazolines” (priority 1980, dated 1986).

One assay concerns the target lipoxygenase. The assay is described as follows: Inhibition of lipoxygenase in an enzyme assay according to the method of Blackwell and Flower. It is filed as biochemical. To be noted: Table I, read-out: ED50 for inhibition of lipoxygenase.
For the next assay, the target named is cyclo-oxygenase. Kind of assay: Inhibition of cyclo-oxygenase in an enzyme assay according to the method of Blackwell and Flower. It is filed as biochemical. The settings on record: Table I, read-out: ED50 for inhibition of cyclo-oxygenase.

Counter-ions that a name gives are not always drawn. Where only a bound is given, the exact number is not on record here.

`CNC1=NN(c2cccc(C(F)(F)F)c2)CC1` [Example 1, 3-methylamino-1-(3-trifluoromethylphenyl)-2-pyrazoline]: the IC50 on lipoxygenase and on cyclo-oxygenase was about 300 nM throughout.

For `CCNC1=NN(c2cccc(C(F)(F)F)c2)CC1` [Example 2, 3-ethylamino-1-(3-trifluoromethylphenyl)-2-pyrazoline], the IC50 on lipoxygenase is about 700 nM; on cyclo-oxygenase it was about 800 nM.

As to `CCCNC1=NN(c2cccc(C(F)(F)F)c2)CC1` [Example 3, 3-propylamino-1-(3-trifluoromethylphenyl)-2-pyrazoline], the IC50 on lipoxygenase and at cyclo-oxygenase was under 300 nM in each case.

Take `CCCCNC1=NN(c2cccc(C(F)(F)F)c2)CC1` [Example 4, 3-butylamino-1-(3-trifluoromethylphenyl)-2-pyrazoline]: the IC50 at lipoxygenase and on cyclo-oxygenase was under 300 nM in each case.

On to `FC(F)(F)c1cccc(N2CCC(NCc3ccccc3)=N2)c1` [Example 5, 3-benzylamino-1-(3-trifluoromethylphenyl)-2-pyrazoline hydrochloride], for which the IC50 on lipoxygenase and on cyclo-oxygenase was about 300 nM each time.
